Data on 7 compounds can be found in ChEMBL document CHEMBL1909046, “DrugMatrix in vitro pharmacology data”.

The target of data set [1] is Voltage-gated inwardly rectifying potassium channel KCNH2 (Homo sapiens, UniProt Q12809). To be noted: hek293. Note: in other assays of this panel Not Active means under 50% inhibition at 10 µM.
In data set [2] the target is T1, Alpha-1A adrenergic receptor (Rattus norvegicus, UniProt P43140).
T1 sequence (P43140 whole entry): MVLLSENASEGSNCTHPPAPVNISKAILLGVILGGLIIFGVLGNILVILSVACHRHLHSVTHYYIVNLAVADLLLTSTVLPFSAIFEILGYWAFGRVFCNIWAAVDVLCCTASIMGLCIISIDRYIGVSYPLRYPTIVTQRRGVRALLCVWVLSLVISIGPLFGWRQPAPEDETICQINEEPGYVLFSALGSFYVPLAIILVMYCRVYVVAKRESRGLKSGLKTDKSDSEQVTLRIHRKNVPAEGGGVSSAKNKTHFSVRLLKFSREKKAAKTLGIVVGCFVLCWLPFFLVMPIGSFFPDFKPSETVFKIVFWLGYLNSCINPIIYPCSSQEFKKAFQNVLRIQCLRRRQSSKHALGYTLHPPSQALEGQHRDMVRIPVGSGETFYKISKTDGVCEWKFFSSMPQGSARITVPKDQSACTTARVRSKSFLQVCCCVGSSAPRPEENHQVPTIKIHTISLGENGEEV
Put plainly: DRUGMATRIX: Alpha-1A adrenergic receptor radioligand binding (ligand: prazosin). It is filed as cell membranes, Wistar, Submaxillary gland, Membrane. Conditions: Not Active = under 50% inhibition at 10 µM.

The target in data set [3] is cGMP-specific 3',5'-cyclic phosphodiesterase (Homo sapiens, UniProt O76074). Briefly: DRUGMATRIX: Phosphodiesterase PDE5 enzyme inhibition (substrate: [3H]cGMP + cGMP). It is filed as tissue-based, Platelet. Conditions: platelet; Not Active = under 50% inhibition at 10 µM.
Another data set addresses T2, Progesterone receptor (Bos taurus, UniProt Q690N0).
T2 sequence (Q690N0 whole entry): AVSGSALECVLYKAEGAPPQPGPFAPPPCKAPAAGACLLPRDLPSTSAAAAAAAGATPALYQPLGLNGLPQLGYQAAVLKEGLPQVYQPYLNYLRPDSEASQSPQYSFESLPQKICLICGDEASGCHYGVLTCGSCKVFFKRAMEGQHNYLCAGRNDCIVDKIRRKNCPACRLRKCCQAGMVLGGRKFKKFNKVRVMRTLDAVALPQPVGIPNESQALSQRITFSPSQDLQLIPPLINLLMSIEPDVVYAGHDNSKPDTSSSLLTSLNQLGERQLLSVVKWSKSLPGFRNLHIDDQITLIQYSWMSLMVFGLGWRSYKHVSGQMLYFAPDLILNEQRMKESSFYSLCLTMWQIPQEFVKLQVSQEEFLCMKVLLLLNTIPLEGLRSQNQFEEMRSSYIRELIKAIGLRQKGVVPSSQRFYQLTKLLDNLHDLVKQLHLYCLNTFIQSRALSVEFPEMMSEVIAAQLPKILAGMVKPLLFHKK
Put plainly: DRUGMATRIX: Progesterone radioligand binding (ligand: [3H] R-5020). It is filed as tissue-based, Uterus. To be noted: Not Active = under 50% inhibition at 10 µM.

In data set [4] the target is Platelet-activating factor receptor (Homo sapiens, UniProt P25105). It is filed as tissue-based. Note: in other assays of this panel Not Active means under 50% inhibition at 10 µM.
Chain of Platelet-activating factor receptor (P25105 whole entry): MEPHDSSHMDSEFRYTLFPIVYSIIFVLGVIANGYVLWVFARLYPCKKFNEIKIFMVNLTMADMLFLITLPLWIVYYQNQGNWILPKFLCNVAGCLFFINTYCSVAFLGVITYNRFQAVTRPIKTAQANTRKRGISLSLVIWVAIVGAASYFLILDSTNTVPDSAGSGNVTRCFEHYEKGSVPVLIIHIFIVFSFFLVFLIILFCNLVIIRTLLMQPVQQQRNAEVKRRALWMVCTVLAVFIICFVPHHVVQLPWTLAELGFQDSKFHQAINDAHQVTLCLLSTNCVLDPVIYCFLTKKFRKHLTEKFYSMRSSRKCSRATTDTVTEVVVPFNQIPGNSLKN
The next data set has as its target Melanocortin receptor 5 (Homo sapiens, UniProt P33032). In kind it is cell membranes, HEK293, Membrane. To be noted: hek293. Note: in other assays of this panel Not Active means under 50% inhibition at 10 µM.
The nature of data set [5]: DRUGMATRIX: Glutamate, NMDA, Agonism radioligand binding (ligand: [3H] CGP-39653). It is filed as cell membranes, Rattus norvegicus, Wistar, Cerebral cortex, Membrane. Conditions: Not Active = under 50% inhibition at 10 µM.
A short description of data set [6]: DRUGMATRIX: GABAA, Muscimol, Central radioligand binding (ligand: [3H] Muscimol). To be noted: Not Active = under 50% inhibition at 10 µM. It is filed as cell membranes, Rattus norvegicus, Wistar, Brain, Membrane.

Chain of Melanocortin receptor 5 (P33032 whole entry): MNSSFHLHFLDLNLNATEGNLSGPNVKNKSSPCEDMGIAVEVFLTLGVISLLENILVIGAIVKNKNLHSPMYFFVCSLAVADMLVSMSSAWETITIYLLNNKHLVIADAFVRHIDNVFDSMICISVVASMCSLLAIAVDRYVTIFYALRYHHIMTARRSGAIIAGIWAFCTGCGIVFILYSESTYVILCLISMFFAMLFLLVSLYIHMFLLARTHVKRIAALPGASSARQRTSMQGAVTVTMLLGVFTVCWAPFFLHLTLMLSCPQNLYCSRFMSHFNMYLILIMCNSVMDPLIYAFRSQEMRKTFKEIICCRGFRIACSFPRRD
Chain of Voltage-gated inwardly rectifying potassium channel KCNH2 (Q12809 whole entry): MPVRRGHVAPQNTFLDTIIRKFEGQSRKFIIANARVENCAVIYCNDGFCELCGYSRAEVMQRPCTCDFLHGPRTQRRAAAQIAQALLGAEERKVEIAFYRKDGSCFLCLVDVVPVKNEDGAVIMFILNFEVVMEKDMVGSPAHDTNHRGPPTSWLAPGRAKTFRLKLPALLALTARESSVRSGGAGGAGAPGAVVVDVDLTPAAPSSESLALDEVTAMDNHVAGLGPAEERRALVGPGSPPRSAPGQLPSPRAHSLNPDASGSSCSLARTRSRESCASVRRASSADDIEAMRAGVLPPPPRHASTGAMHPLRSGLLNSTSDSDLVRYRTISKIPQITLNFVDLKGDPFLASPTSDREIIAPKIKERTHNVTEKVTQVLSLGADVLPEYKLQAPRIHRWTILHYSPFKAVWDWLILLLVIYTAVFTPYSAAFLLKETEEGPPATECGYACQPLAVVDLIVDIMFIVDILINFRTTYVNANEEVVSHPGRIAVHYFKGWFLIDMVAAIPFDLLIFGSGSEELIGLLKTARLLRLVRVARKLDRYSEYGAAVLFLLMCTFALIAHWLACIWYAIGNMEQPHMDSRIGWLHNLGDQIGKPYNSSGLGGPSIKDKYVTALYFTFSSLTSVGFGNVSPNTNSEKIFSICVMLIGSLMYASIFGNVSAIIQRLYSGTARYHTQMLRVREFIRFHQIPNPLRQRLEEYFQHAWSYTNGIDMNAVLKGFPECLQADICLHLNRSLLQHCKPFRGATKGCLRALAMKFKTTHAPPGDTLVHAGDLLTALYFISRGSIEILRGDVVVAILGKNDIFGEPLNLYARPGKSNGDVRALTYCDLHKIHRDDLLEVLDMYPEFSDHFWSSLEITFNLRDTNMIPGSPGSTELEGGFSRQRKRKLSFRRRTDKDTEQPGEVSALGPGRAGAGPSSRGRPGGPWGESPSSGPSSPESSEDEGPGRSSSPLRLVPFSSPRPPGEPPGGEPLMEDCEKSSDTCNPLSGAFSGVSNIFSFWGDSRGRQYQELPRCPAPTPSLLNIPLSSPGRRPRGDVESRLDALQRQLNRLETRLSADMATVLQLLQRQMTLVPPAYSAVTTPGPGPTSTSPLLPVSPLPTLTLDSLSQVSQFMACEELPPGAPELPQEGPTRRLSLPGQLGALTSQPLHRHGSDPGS

What is called IC50 is the point on the concentration scale where inhibition reaches its midpoint. The term Ki denotes a dissociation constant, usually derived from enzyme kinetics or from competition with a known ligand. For the compound `OC[C@H]1OC2C3[C@@H](CO)OC(O[C@H]4[C@H](O)[C@@H](O)[C@@H](O[C@H]5[C@H](O)[C@@H](O)[C@@H](O[C@H]6[C@H](O)[C@@H](O)[C@@H](O[C@H]7[C@H](O)[C@@H](O)[C@@H](O[C@H]8[C@H](O)[C@@H](O)[C@@H](O[C@H]9[C@H](O)[C@@H](O)C(OC1[C@H](O)[C@H]2O)O[C@@H]9CO)O[C@@H]8CO)O[C@@H]7CO)O[C@@H]6CO)O[C@@H]5CO)O[C@@H]4CO)[C@H](O)[C@H]3O`, the IC50 entry (in data set [1]; in data set [2]; in data set [3]; at Progesterone receptor; in data set [4]; against Melanocortin receptor 5) was “Not Active” in each case. Further, the concentration for half-maximal inhibition (IC50) entry in data set [5] and in data set [6] was “Not Active” throughout. The inhibitory constant (Ki) entry in data set [1], in data set [5] and in data set [6] was “Not Active” each time.
With `Nc1ccc(C(=O)O)c(O)c1` [AMINOSALICYLIC ACID], the IC50 result (in data set [1]; in data set [2]; in data set [3]; at Progesterone receptor; in data set [4]; against Melanocortin receptor 5) was “Not Active” each time. Further, the IC50 result in data set [5] and in data set [6] was “Not Active” throughout. Besides, the inhibition constant Ki result in data set [1], in data set [5] and in data set [6] was “Not Active” in each case.
Turning to `O=c1[nH]cnc2c1ncn2[C@H]1CC[C@@H](CO)O1` [DIDANOSINE], the IC50 result (in data set [1]; in data set [2]; in data set [3]; on Progesterone receptor; in data set [4]; at Melanocortin receptor 5) was “Not Active” in each case. The IC50 entry in data set [5] and in data set [6] was “Not Active” throughout. In addition, the Ki entry in data set [1], in data set [5] and in data set [6] was “Not Active” each time.
Consider `CCCCCCNC(=O)n1cc(F)c(=O)[nH]c1=O` [CARMOFUR], for which the IC50 result (in data set [1]; in data set [2]; in data set [3]; on Progesterone receptor; in data set [4]; against Melanocortin receptor 5) was “Not Active” in each case. The IC50 entry in data set [5] and in data set [6] was “Not Active” in each case. The inhibition constant (Ki) result in data set [1], in data set [5] and in data set [6] was “Not Active” each time.
Consider `C#C[C@]1(O)CC[C@H]2[C@@H]3CCC4=CC(=O)CC[C@@H]4[C@H]3CC[C@@]21C` [NORETHINDRONE], for which the 50% inhibitory concentration (IC50) result in data set [1] was “Not Active”; in data set [2], “Not Active”; in data set [3], “Not Active”; at Progesterone receptor (read-out: IC50), 9.34 nM; in data set [4], “Not Active”; against Melanocortin receptor 5 it was “Not Active”. Also, the IC50 result in data set [5] and in data set [6] was “Not Active” throughout. Further, the Ki result was “Not Active” in data set [1], 1.22 nM on Progesterone receptor (read-out: Ki), “Not Active” in data set [5] and “Not Active” in data set [6].
As to `Cl.NC[C@H]1CC[C@H](C(=O)Oc2ccc(CCC(=O)O)cc2)CC1` [CETRAXATE HYDROCHLORIDE], the half-maximal inhibitory concentration (IC50) result (in data set [1]; in data set [2]; in data set [3]; on Progesterone receptor; in data set [4]; against Melanocortin receptor 5) was “Not Active” throughout. The IC50 entry in data set [5] and in data set [6] was “Not Active” each time. Besides, the Ki result in data set [1], in data set [5] and in data set [6] was “Not Active” in each case.
`CC(C)Cn1cnc2c(N)nc3ccccc3c21` [IMIQUIMOD]: the IC50 entry (in data set [1]; in data set [2]; in data set [3]; at Progesterone receptor; in data set [4]; against Melanocortin receptor 5) was “Not Active” in each case. In addition, the IC50 entry in data set [5] and in data set [6] was “Not Active” each time. In addition, the inhibitory constant (Ki) entry in data set [1], in data set [5] and in data set [6] was “Not Active” each time.
